# “Also recorded” adds a separate entry of the source.
# Assays:
# [1] = test system: HCT-116 and HCT-FET cells; test: Chemosensitization (caspase-3 cleavage) of colorectal cancer cells to 5′FU; type: cell-based, human
# Experimental: FIG. 16. […] (A) Ovarian cancer (OVCAR-8 and ES-2) cells were treated with indicated concentrations of Doxorubicin (Doxo) alone or in combination with STL001 for 24 hrs. […] (C) colon cancer (HCT-116 and FET) cells were treated with indicated concentrations of 5′FU alone or in combination with STL001 for 24 hrs.
# FOXM1 [2] = molecular target: T1, FOXM1 (Homo sapiens, UniProt Q08050); test: FOXM1 protein levels by immunoblotting in solid cancer cell lines
# T1 sequence (Q08050 1-763): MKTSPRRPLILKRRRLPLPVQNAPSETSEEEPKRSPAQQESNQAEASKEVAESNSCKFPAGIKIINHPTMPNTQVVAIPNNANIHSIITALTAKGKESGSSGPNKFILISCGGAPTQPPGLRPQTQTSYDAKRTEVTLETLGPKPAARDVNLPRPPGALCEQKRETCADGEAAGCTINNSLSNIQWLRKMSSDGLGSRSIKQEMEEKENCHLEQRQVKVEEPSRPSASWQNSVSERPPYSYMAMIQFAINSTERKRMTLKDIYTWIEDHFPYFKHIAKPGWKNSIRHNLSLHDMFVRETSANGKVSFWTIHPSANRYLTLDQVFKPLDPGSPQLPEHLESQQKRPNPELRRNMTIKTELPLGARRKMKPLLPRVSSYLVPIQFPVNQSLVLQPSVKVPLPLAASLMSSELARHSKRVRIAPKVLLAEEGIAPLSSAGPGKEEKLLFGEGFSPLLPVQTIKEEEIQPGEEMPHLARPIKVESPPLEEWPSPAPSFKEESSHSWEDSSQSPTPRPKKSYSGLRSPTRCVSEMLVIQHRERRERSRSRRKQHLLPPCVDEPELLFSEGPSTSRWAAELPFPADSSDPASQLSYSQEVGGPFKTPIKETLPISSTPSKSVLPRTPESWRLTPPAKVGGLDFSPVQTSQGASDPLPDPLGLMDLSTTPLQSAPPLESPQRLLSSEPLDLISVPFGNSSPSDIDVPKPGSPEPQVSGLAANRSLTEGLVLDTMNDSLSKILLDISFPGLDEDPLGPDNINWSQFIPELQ
# Experimental: Cell culture: Human cell lines LNCaP and 22Rv1 (human prostate carcinoma), OVCAR8 and ES-2 (High-grade serous ovarian cancer, HGSOC), HCT-116 and HCT-FET (human colorectal carcinoma), HCC-1143 (triple negative breast cancer (TNBC), TAMR (Tamoxifen resistant MCF7) human breast cancer, were provided from various investigators. LNCaP and 22Rv1 cell lines were cultured in RPMI-1640 with 2 mM L-Glutamine (Gibco; Thermo Fisher Scientific, Waltham, MA, USA). HCC-1143 cell lines were cultured in Iscove's Modified Dulbecco Medium (IMDM) with 2 mM L-Glutamine (Gibco; Thermo Fisher Scientific). OVCAR-8, ES-2, HCT-116, and HCT-FET cell lines were cultured in Dulbecco's Modified Eagle Medium (DMEM) with 4.5 g/L glucose and 4 mM L-Glutamine (Gibco; Thermo Fisher Scientific). For all cell lines, the growth media was supplemented with 10% Foetal Bovine Serum (FBS), penicillin (100 U/mL), and 100 μg/mL streptomycin (Gibco; Thermo Fisher Scientific). TAMR cells were routinely cultured in DMEM/F12 medium without phenol red (Gibco; Thermo Fisher Scientific), containing 1% charcoal-striped FBS, 2.5 mM L-Glutamine (Thermo Fisher Scientific), 6 ng/mL insulin (Millipore Sigma) and 50 nM 4-hydroxytamoxifen (4-OHT; Millipore Sigma). All cell lines were grown and maintained at 37° C. in a humidified incubator with 5% CO2. Sub-confluent cultures (70-80%) were split 1:5 using 0.25% Trypsin/EDTA (Millipore Sigma).
# Drug treatment of cultured cells: After harvesting, cells were counted in presence of Trypan Blue (Thermo Fisher Scientific) and seeded onto tissue culture plates to achieve ~50% confluency. The next day, treatment of cells was performed by aspirating the nonadherent cells and growth medium and replacing it with the fresh one containing selected concentrations of drugs. For Tamoxifen based studies, the nonadherent cells and growth media was aspirated and replaced with the DMEM supplemented with 4.5 g/L glucose and 4 mM L-Glutamine, 10% FBS, penicillin (100 U/mL), 100 μg/mL streptomycin, 10 nM estrogen, and selected concentrations of drugs. […] Post-treatment at selected times, the cells were harvested, washed with ice-cold PBS and used for protein or RNA purification as described below.
# Protein immunoblotting: Total protein was extracted using ice-cold radio-immunoprecipitation assay (RIPA) buffer (Millipore Sigma) supplemented with Halt protease- and phosphatise-inhibitor cocktails (Fisher Scientific), 2 mM sodium orthovanadate (New England Biolabs, Inc., USA), and 5 mM sodium fluoride (Millipore Sigma) according to the manufacturer's protocol. Protein content in each sample was estimated using Bio-Rad Protein Assay (Bio-Rad, USA). Equal amounts of protein (20-30 μg) were separated on hand-cast SDS/PAGE (6-12%) mini-protein gels and transferred to 0.2 μm Immobilon-Psq polyvinylidene difluoride (PVDF) transfer membrane (Millipore Sigma). Membranes were blocked with 4% bovine serum albumin (BSA; Millipore Sigma) in TRIS-buffered saline (TBS) with 0.1% Tween-20 (TBS-T, Thermo Fisher Scientific) and probed overnight at 4° C. with the primary antibodies (FOXM1, Cell Signaling Technology (CST), Inc., USA; Cleaved Caspase-3, CST; β-actin, Thermo Fisher Scientific) diluted according to the manufacturer's protocol. […] After incubating membranes with the secondary antibodies, the membranes were then washed three times for 10 min each with TBST. Protein bands were developed using SuperSignal™ West Pico PLUS Chemiluminescent Substrate (Thermo Fisher Scientific) and detected using ChemiDoc Imaging System (Bio-Rad).
# FOXM1 [3] = molecular target: T1, FOXM1; test: FOXM1 protein levels by immunoblotting in leukemia/AML cell lines; type: cell-based; parameters: Total protein samples obtain from treated cells were analyzed for FOXM1 protein levels via immunoblotting; endogenous in cells; host or cells: KG-1, HL-60, K562, THP-1 leukemia cell lines; conditions: for effect on FOXM1 protein levels suppressed by STL001 / FOXM1 level: KG-1 cells; for effect on FOXM1 protein levels suppressed by STL001: co-treatment with STL001, 24 h
# Experimental: [a] Leukemia cells, KG-1, HL-60 and K562 were treated with increasing concentrations of STL427944 for 24 hrs. […] [b] THP1 and KG-1 cells were treated with indicated concentrations of venetoclax and STL427944 alone or in combination for 24 hrs. [c] KG-1 and K562 cells were treated with indicated concentrations of cytarabine and STL427944 alone or in combination for 24 hrs.
# FIG. 8. STL427944 treatment of human leukemia cell lines suppress FOXM1 protein expression. (a) STL427944 treatment of human leukemia cell lines inhibit FOXM1 protein expression and sensitize cells to venetoclax treatment. […] (b) Stable shRNA-mediated FOXM1 knockdown prominently sensitizes KG-1 cells to cytotoxic effect of venetoclax. (c, d) combined treatment with STL427944 and venetoclax suppresses FOXM1 in KG-1 and THP-1 cells and synergistically promotes cytotoxic effects similarly to FOXM1 knockdown. Total protein was isolated from cells immediately after the treatment and analyzed via immunoblotting with FOXM1 antibodies). Apoptosis induction was estimated based on caspase-3 cleavage.
# FIGS. 9A and 9B: Novel FOXM1 inhibitor STL001 sensitizes Leukemia cells to chemotherapy agents. [a] Structural formula of novel FOXM1 inhibitor STL001. [b] Leukemia cells, KG-1, HL-60, and K562 were treated with increasing concentrations of STL001 for 24 hrs. […] [c] KG-1 cells were treated with indicated concentrations of Laptomycin B, Chloroquine, and STL001 for 24 hrs. […] [d] KG-1, HL-60, and K562 cells were treated with indicated concentrations of venetoclax and STL001 alone or in combination for 24 hrs. [e] KG-1, HL-60, and K562 cells were treated with indicated concentrations of cytarabine and STL alone or in combination for 24 hrs.
# FIGS. 13A-13H STL001 is a novel FOXM1 inhibitor that sensitizes leukemia cells to standard cytotoxic and bcl2 inhibitor therapies. FIG. 13A AML cell line KG-1 treated with precursor compound STL427944. FIG. 3B AML cell lines KG-1, HL-60, and K562 were treated with increasing concentrations of STL001 for 24 h. Total protein samples obtained from treated cells were analyzed for FOXM1 protein levels using immunoblotting; β-actin was used as the internal loading control. FIG. 13C KG-1, HL-60, and K562 cells were treated with indicated concentrations of venetoclax and STL001 alone or in combination for 24 h. FIG. 13D KG-1, HL-60, and K562 cells were treated with indicated concentrations of cytarabine and STL001 alone or in combination for 24 h. […] FIG. 13E KG-1 cells were treated with indicated concentrations of Leptomycin B, Chloroquine, and STL001 for 24 h. Total protein samples obtained from treated cells were analyzed for FOXM1 protein levels via immunoblotting; β-actin was used as an internal loading control. FIG. 13F KG-1 cell lines with shRNA knockdown of FOXM1 were treated with venetoclax and STL001 and compared to parental cells. FIG. 13G Real-time PCR-based expression profiling for canonical FOXM1 target genes was performed on primary AML mononuclear cells (n=5) treated ex vivo with STL001 5 μM for 24 h. Mean and standard error of the delta Ct for DMSO or treatment group are plotted for each gene. P-value is estimated by two-tailed paired t-test. Asterisks denote P<0.05. FIG. 13H Treatment of peripheral blood mononuclear cells with STL001 for 24 h followed by immunohistochemistry for FOXM1. Slides were scanned on an Aperio AT2 brightfield scanner and images were analyzed using HALO 2.0 software. Hematoxylin counterstain was used to segment nuclei within the ROIs and to establish an accurate cell count. Percent cells with nuclear FOXM1 expression compared between DMSO and STL001 treated cells. P-value is based on one-tailed paired t-test.
# FOXM1 [4] = molecular target: T1, FOXM1; parameters: Total protein samples obtain from treated cells were analyzed for FOXM1 protein levels via immunoblotting; endogenous in cells; conditions: solid cancer cell lines; cited from earlier work
# FOXM1 [5] = molecular target: T1, FOXM1; parameters: Total protein samples obtain from treated cells were analyzed for FOXM1 protein levels via immunoblotting; endogenous in cells; host or cells: KG-1, HL-60, K562, THP-1 leukemia cell lines; conditions: cited from earlier work
# [6] = test system: KG-1, HL-60, K562, THP-1 cells; type: cell-based
# NPM1c mutant AML cells = conditions: cited from earlier work
# HCC-1143 cells = test system: HCC-1143 cells
# Experimental: (§1) FIG. 17. […] (A) Prostate cancer (22RV1 and LNCaP) cells were treated with indicated concentrations of paclitaxel alone or in combination with STL001 for 24 hrs. (B) Tamoxifen resistance MCF-7 breast cancer cells (TAM-R) were treated with indicated concentrations of Tamoxifen alone or in combination with STL001 for 24 hrs. In all cases, total protein samples were obtained from cells immediately after treatment and analyzed for FOXM1, cleaved caspase-3 levels via immunoblotting, β-actin was used as internal loading control (n=3). (C) Percent (%) dead cells in TAM-R cells treated with indicated concentrations of Tamoxifen alone or in combination with STL001 for 24 hrs. […] (F) HCC 143 cells with stable shRNA-mediated FOXM1 knockdown (KD) were treated with doxorubicin alone or in combination with STL001 for 24 hrs and compared to parental cells under the same treatment conditions. In all cases, total protein samples were obtained from cells immediately after treatment and analyzed for FOXM1, cleaved caspase-3 levels via immunoblotting, β-actin was used as internal loading control (n=3).
# Stable FOXM1-expression knockdown in cancer cell: Cells were seeded on commercially available 12-well tissue culture plates to achieve ~40% confluency. […] Transduced cells were selected by their cultivation with puromycin (1.0 μg/mL) for 10 days and then maintained without puromycin as described above.
# 22RV1, LNCaP cells = test system: 22RV1, LNCaP cells
# Experimental: as §1
# TAMR cells = type: cell-based
# Experimental: as §1
compound,measurement,setting,value
"O=c1[nH]cc(F)c(=O)[nH]1 [5′FU, 5-fluorouracil]","cell death, chemotherapeutic alone",[1],without evident cell death
same,"FOXM1 level, chemotherapeutic alone",FOXM1 [2]; HCT-116 and HCT-FET,FOXM1 upregulation
CCN(CC)CCCC(C)Nc1ccnc2cc(Cl)ccc12 (stereo not drawn) [Chloroquine],effect on FOXM1 protein levels suppressed by STL001,FOXM1 [3],rescued FOXM1 protein levels
CCC(=C/[C@H](C)C/C=C/C(C)=C/[C@@H](C)C(=O)[C@@H](C)[C@H](O)[C@@H](C)C/C(C)=C/C(=O)O)/C=C/[C@@H]1OC(=O)C=C[C@@H]1C [Leptomycin B],effect on FOXM1 protein levels suppressed by STL001,FOXM1 [3],rescued FOXM1 protein levels
O=C(Oc1cccc(/C=N/Nc2nc(Nc3ccccc3)nc(N3CCOCC3)n2)c1)c1ccco1 [STL427944],concentrations showing modest FOXM1 suppression,FOXM1 [4],25 to 50 µM
same,"sensitivity of treated human cancer cells to platinum-based agents, 5-fluorouracil, taxanes",FOXM1 [5]; human cancer cells,increased sensitivity to cytotoxic effects of conventional chemotherapeutic treatments
same,effect on FOXM1,"FOXM1 [5]; relocalization of nuclear FOXM1 to cytoplasm, degradation by autophagosomes",selectively suppresses FOXM1
same,apoptosis (caspase-3 cleavage) in combination with venetoclax,[6]; KG-1/THP-1 cells,synergetic induction of apoptosis
same,efficiency of sensitization to venetoclax treatment,"[6]; KG-1 cells, versus shRNA FOXM1 knockdown",comparable to effects caused by shRNA-mediated FOXM1 knockdown
same,"effect on cytotoxicity of chemotherapeutic drugs (venetoclax, cytarabine)","[6]; THP1, KG-1, K562 cells, 24 hrs",enhances the cytotoxic effect of conventional chemotherapeutic drugs
same,concentration showing modest FOXM1 inhibition,FOXM1 [3]; AML cell line KG-1,25 µM
same,Potency in AML,FOXM1 [3]; estimated,uM range
same,FOXM1 protein levels,"FOXM1 [3]; leukemia cell lines, increasing concentrations, 24 h",dose-dependent suppression of FOXM1 protein levels; also recorded: efficiently reduces FOXM1 protein levels
same,efficacy in knocking down FOXM1 expression,"FOXM1 [2]; ovarian cancer cells (ES-2, OVCAR-8)",lesser efficacy as compared to STL001
CC(C)N(C(=O)c1cc(F)ccc1Oc1cncnc1N1CC2(CCN(CC3CCC(NS(C)(=O)=O)CC3)CC2)C1)C(C)C (stereo not drawn) [VTP-50469],leukemia development in the knock-in murine model,NPM1c mutant AML cells; knock-in murine model,prevent leukemia development
same,effect on NPM1c mutant AML cells in xenografts,"NPM1c mutant AML cells; oral inhibitor, xenografts",able to eradicate NPM1c mutant AML cells in xenografts
CC(C)C[C@H](NC(=O)[C@H](Cc1ccccc1)NC(=O)c1cnccn1)B(O)O [bortezomib],apoptosis (caspase-3 cleavage) in combination with cytarabine,[6]; KG-1 cells,synergistic induction of apoptosis
same,FOXM1 level,FOXM1 [3],down-regulation of FOXM1
COc1cccc2c1C(=O)c1c(O)c3c(c(O)c1C2=O)C[C@@](O)(C(=O)CO)C[C@@H]3O[C@H]1C[C@H](N)[C@H](O)[C@H](C)O1 [doxorubicin],"cytotoxic effects, DNA-damaging agent alone",HCC-1143 cells,without showing prominent cytotoxic effects
same,"cellular FOXM1 protein, DNA-damaging agent alone","FOXM1 [2]; HCC-1143, sub-lethal concentrations",significantly higher levels of cellular FOXM1 protein
same,"FOXM1 protein abundance, chemotherapeutic alone","FOXM1 [2]; OVCAR-8, ES-2, sub-lethal concentrations",significant increase in FOXM1 protein abundance
CC(=O)O[C@H]1C(=O)[C@@]2(C)[C@H]([C@H](OC(=O)c3ccccc3)[C@]3(O)C[C@H](OC(=O)[C@H](O)[C@@H](NC(=O)c4ccccc4)c4ccccc4)C(C)=C1C3(C)C)[C@]1(OC(C)=O)CO[C@@H]1C[C@@H]2O [paclitaxel],"cytotoxic effects, chemotherapeutic alone","22RV1, LNCaP cells",without showing any cytotoxic effects
same,"cellular FOXM1 protein levels, chemotherapeutic alone","FOXM1 [2]; 22RV1, LNCaP, sublethal concentrations",prominent increase in cellular FOXM1 protein levels
CC/C(=C(\c1ccccc1)c1ccc(OCCN(C)C)cc1)c1ccccc1 [tamoxifen],"cell death, tamoxifen alone",TAMR cells,without prominent cell death induction
same,"FOXM1 level, tamoxifen alone",FOXM1 [2]; TAMR cells,FOXM1 upregulation
C=C(NC(=O)C(=C)NC(=O)c1csc(C2=N[C@@H]3c4csc(n4)[C@H]4NC(=O)c5csc(n5)[C@H]([C@](C)(O)[C@@H](C)O)NC(=O)[C@H]5CSC(=N5)/C(=C/C)NC(=O)[C@H]([C@@H](C)O)NC(=O)c5csc(n5)[C@]3(CC2)NC(=O)[C@H](C)NC(=O)C(=C)NC(=O)[C@H](C)NC(=O)[C@H]([C@@H](C)CC)N[C@@H]2C=Cc3c([C@H](C)O)cc(nc3[C@H]2O)C(=O)O[C@@H]4C)n1)C(N)=O [thiostrepton],apoptosis (caspase-3 cleavage) in combination with cytarabine,[6]; KG-1 cells,synergistic induction of apoptosis
same,FOXM1 level,FOXM1 [3],down-regulation of FOXM1

# Source: patent publication US20260217691A1, “FOXM1 INHIBITORS AND THEIR USE IN TREATING CANCERS” (THE BOARD OF TRUSTEES OF THE UNIVERSITY OF ILLINOIS, priority 2022, published 2026)
